Assay results published in patent US20070232601A1, “Vla-4 Inhibitor” (priority 2004, published 2007).
pKi: −log10 of the molar value. Blank lines part the entries; values can stand above or below the compound they belong to.

What was measured:
[1] = biological target: T1, hα4 and β1 integrins (VLA-4) (Homo sapiens, UniProt P05556+P13612); assay: In vitro evaluation: inhibition of binding of CHO cells expressing hα4 and β1 integrins to Eu3+-hVCAM-1 D1D7-IgG; conditions: ligand Eu3+-hVCAM-1 D1D7-IgG 2 nM, Ki calculated from IC50
T1 construct: expressed in transfected cells; host or cells: CHO cells
T1 sequence (P13612 34-1032): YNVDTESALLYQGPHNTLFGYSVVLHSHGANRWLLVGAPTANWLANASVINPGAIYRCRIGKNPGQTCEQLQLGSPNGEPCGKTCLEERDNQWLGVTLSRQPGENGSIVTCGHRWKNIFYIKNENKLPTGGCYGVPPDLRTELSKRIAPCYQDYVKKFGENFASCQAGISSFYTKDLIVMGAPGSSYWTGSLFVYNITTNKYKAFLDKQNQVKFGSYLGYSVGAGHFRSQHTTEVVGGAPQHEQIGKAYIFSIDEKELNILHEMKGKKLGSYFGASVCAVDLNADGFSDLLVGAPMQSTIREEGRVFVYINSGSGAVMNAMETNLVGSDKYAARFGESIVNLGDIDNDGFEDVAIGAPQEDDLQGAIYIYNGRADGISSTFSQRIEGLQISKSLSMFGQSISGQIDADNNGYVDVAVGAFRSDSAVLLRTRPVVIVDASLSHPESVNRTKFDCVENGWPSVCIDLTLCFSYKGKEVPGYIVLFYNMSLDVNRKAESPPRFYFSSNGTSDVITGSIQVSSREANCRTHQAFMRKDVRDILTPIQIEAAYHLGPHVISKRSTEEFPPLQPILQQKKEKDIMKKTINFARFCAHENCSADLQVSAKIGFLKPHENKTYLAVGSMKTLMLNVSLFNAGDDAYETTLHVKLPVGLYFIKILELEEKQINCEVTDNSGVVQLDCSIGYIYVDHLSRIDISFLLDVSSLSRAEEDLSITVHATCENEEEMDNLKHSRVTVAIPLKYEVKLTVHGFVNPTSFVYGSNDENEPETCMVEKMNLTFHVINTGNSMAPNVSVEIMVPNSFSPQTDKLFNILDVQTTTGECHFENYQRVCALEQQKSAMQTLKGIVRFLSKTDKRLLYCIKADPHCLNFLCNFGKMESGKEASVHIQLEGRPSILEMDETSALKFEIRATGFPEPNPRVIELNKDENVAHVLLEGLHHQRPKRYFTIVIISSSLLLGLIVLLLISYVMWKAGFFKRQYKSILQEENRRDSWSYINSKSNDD
T1 sequence (P05556 21-798): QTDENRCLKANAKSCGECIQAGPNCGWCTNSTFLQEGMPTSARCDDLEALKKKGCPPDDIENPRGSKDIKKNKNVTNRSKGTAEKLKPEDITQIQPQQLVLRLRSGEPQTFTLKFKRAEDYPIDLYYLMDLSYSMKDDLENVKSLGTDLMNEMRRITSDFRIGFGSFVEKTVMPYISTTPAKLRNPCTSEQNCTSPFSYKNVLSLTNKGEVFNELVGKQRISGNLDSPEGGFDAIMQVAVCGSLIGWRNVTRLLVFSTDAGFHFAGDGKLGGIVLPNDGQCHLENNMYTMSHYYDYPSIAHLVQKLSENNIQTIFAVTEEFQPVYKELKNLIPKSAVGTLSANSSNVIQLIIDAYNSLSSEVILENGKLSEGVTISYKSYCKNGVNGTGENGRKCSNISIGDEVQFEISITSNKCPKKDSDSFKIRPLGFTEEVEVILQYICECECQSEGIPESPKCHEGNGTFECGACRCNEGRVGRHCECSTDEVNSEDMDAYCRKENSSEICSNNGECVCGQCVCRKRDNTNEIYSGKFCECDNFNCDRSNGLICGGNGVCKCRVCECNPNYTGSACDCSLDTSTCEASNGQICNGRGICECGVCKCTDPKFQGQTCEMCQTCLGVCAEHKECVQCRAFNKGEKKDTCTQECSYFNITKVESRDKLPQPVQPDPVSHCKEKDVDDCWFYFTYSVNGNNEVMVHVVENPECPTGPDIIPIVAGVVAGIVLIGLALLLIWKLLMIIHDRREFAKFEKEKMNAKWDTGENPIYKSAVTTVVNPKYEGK
In short: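 CHO cells stably expressing hα4β1 were cultured 2 days, then incubated 1 h at room temperature with Eu3+-hVCAM-1 D1D7-IgG (added as 2 nM solution) and compound in HEPES pH 7.5 with Ca2+, Mg2+ and 4 mM Mn2+, ± 6% human serum albumin. Bound europium was read by time-resolved fluorescence; IC50 was converted to Ki using Scatchard-derived Kd.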

[2] = Dispersibility test in Japanese Pharmacopoeia First and Second Solution; assay type: physicochemical; conditions: for Dispersibility in Japanese Pharmacopoeia First Solution: JP1, pH 1.2; for Dispersibility in Japanese Pharmacopoeia Second Solution: JP2, pH 6.8
Procedure: Dispersibility of a test substance in Japanese Pharmacopoeia First Solution (JP1, pH 1.2) and Japanese Pharmacopoeia Second Solution (JP2, pH 6.8) was evaluated.

Compound: CO[C@H]1C[C@@H](c2ncc(CCC(=O)O)s2)N(C(=O)Cc2cc(Cl)c(Nc3nc4cc(F)ccc4s3)cc2F)C1 [Example 113, 3-[2-[1-[4-(5-Fluoro-2-benzothiazolyl)amino-5-chloro-2-fluorophenyl]acetyl-(4S)-methoxy-(2S)-pyrrolidinyl]-5-thiazolyl]propionic acid]
pKi [1]: 8.30
Dispersibility in Japanese Pharmacopoeia First Solution [2]: 180 µg/mL
Dispersibility in Japanese Pharmacopoeia Second Solution [2]: 770 µg/mL

Compound: Cn1cc(C(=O)Nc2cc(F)c(CC(=O)N3C[C@@H](N4CCC(F)(F)CC4)C[C@H]3c3ncc(CCC(=O)O)s3)cc2Cl)c2ccccc21 [Example 73, 3-[2-[1-[5-Chloro-2-fluoro-4-(1-methyl-3-indolylcarbonylamino)phenylacetyl]-(4S)-[1-(4,4-difluoro)piperidinyl]-(2S)-pyrrolidinyl]-5-thiazolyl]propionic acid]
pKi [1]: 8.96
Dispersibility in Japanese Pharmacopoeia First Solution [2]: 230 µg/mL
Dispersibility in Japanese Pharmacopoeia Second Solution [2]: 290 µg/mL

Compound: CCOC1CN([C@H]2C[C@@H](c3ncc(CCC(=O)O)s3)N(C(=O)Cc3cc(Cl)c(NC(=O)c4cn(C)c5ccccc45)cc3Cl)C2)C1 [Example 70, 3-[2-[1-[2,5-Dichloro-4-(1-methyl-3-indolylcarbonylamino)phenylacetyl]-(4S)-[1-(3-ethoxy)azetidinyl]-(2S)-pyrrolidinyl]-5-thiazolyl]propionic acid]
pKi [1]: 8.64
Dispersibility in Japanese Pharmacopoeia First Solution [2]: 960 µg/mL
Dispersibility in Japanese Pharmacopoeia Second Solution [2]: 960 µg/mL

pKi [1]: 9.05
Dispersibility in Japanese Pharmacopoeia First Solution [2]: 1000 µg/mL
Dispersibility in Japanese Pharmacopoeia Second Solution [2]: 1000 µg/mL
Compound: COC1CN([C@H]2C[C@@H](c3ncc(CCC(=O)O)s3)N(C(=O)Cc3cc(Cl)c(NC(=O)c4cn(C)c5ccccc45)cc3F)C2)C1 [Example 63, 3-[2-[1-[5-Chloro-2-fluoro-4-(1-methyl-3-indolylcarbonylamino)phenylacetyl]-(4S)-[1-(3-methoxy)azetidinyl]-(2S)-pyrrolidinyl]-5-thiazolyl]propionic acid]

pKi [1]: 9.25
Dispersibility in Japanese Pharmacopoeia First Solution [2]: 1700 µg/mL
Dispersibility in Japanese Pharmacopoeia Second Solution [2]: 2000 µg/mL
Compound: COc1ccccc1Nc1nc2ccc(CC(=O)N3C[C@@H](OC)C[C@H]3c3ncc(CCC(=O)O)s3)c(F)c2o1 [Example 10, 3-[2-[1-[[7-Fluoro-2-(2-methoxyphenylamino)-1,3-benzoxazol-6-yl]acetyl]-(4S)-methoxy-(2S)-pyrrolidinyl]-5-thiazolyl]propionic acid]

Compound: O=C(O)CCc1cnc([C@@H]2C[C@H](N3CCN(CC(F)(F)F)CC3)CN2C(=O)Cc2cc(Cl)c(NC(=O)c3coc4ccccc34)cc2Cl)s1 [Example 84]
pKi [1]: 8.82
Dispersibility in Japanese Pharmacopoeia First Solution [2]: 280 µg/mL
Dispersibility in Japanese Pharmacopoeia Second Solution [2]: 760 µg/mL

Compound: C[C@@H]1CN([C@H]2C[C@@H](c3ncc(CCC(=O)O)s3)N(C(=O)Cc3cc(Cl)c(NC(=O)c4coc5ccccc45)cc3F)C2)C[C@H](C)O1 [Example 89]
pKi [1]: 8.89
Dispersibility in Japanese Pharmacopoeia First Solution [2]: 1100 µg/mL
Dispersibility in Japanese Pharmacopoeia Second Solution [2]: 1300 µg/mL

Compound: C[C@@H]1CN([C@H]2C[C@@H](c3ncc(CCC(=O)O)s3)N(C(=O)Cc3cc(Cl)c(NC(=O)c4csc5ccccc45)cc3Cl)C2)C[C@H](C)O1 [Example 88, 3-[2-[1-[4-(3-Benzo[b]thiophenylcarbonylamino)-2,5-dichlorophenylacetyl]-(4S)-[4-(cis-2,6-dimethyl)morpholinyl]-(2S)-pyrrolidinyl]-5-thiazolyl]propionic acid]
pKi [1]: 8.92
Dispersibility in Japanese Pharmacopoeia First Solution [2]: 1200 µg/mL
Dispersibility in Japanese Pharmacopoeia Second Solution [2]: 1400 µg/mL

Compound: CCOC1CN([C@H]2C[C@@H](c3ncc(CCC(=O)O)s3)N(C(=O)Cc3cc(Cl)c(NC(=O)c4cn(C)c5ccccc45)cc3F)C2)C1 [Example 69, 3-[2-[1-[5-Chloro-2-fluoro-4-(1-methyl-3-indolylcarbonylamino)phenylacetyl]-(4S)-[1-(3-ethoxy)azeditinyl]-(2S)-pyrroldinyl]-5-thiazolyl]propionic acid]
pKi [1]: 9.15
Dispersibility in Japanese Pharmacopoeia First Solution [2]: 940 µg/mL
Dispersibility in Japanese Pharmacopoeia Second Solution [2]: 940 µg/mL

Compound: COC1CN([C@H]2C[C@@H](c3ncc(CCC(=O)O)s3)N(C(=O)Cc3cc(Cl)c(NC(=O)c4csc5ccccc45)cc3Cl)C2)C1 [Example 66]
pKi [1]: 9.08
Dispersibility in Japanese Pharmacopoeia First Solution [2]: 1000 µg/mL
Dispersibility in Japanese Pharmacopoeia Second Solution [2]: 1000 µg/mL

Compound: O=C(O)CCc1cnc([C@@H]2C[C@H](N3CCN(CC(F)(F)F)CC3)CN2C(=O)Cc2cc(Cl)c(NC(=O)c3coc4ccccc34)cc2F)s1 [Example 83]
pKi [1]: 8.80
Dispersibility in Japanese Pharmacopoeia First Solution [2]: 540 µg/mL
Dispersibility in Japanese Pharmacopoeia Second Solution [2]: 1000 µg/mL

Compound: CO[C@H]1C[C@@H](c2ncc(CCC(=O)O)s2)N(C(=O)Cc2cc(Cl)c(Nc3nc4ccccc4o3)cc2F)C1 [Example 108]
pKi [1]: 7.72
Dispersibility in Japanese Pharmacopoeia First Solution [2]: 730 µg/mL
Dispersibility in Japanese Pharmacopoeia Second Solution [2]: 730 µg/mL

Compound: C[C@@H]1CN([C@H]2C[C@@H](c3ncc(CCC(=O)O)s3)N(C(=O)Cc3cc(Cl)c(NC(=O)c4csc5ccccc45)cc3F)C2)C[C@H](C)O1 [Example 87, 3-[2-[1-[4-(3-Benzo[b]thiophenylcarbonylamino)-5-chloro-2-fluorophenylacetyl]-(4S)-[4-(cis-2,6-dimethyl)morpholinyl]-(2S)-pyrrolidinyl]-5-thiazolyl]propionic acid]
pKi [1]: 9.00
Dispersibility in Japanese Pharmacopoeia First Solution [2]: 1200 µg/mL
Dispersibility in Japanese Pharmacopoeia Second Solution [2]: 1300 µg/mL

Compound: CO[C@H]1C[C@@H](c2ncc(CCC(=O)O)s2)N(C(=O)Cc2ccc(Nc3nc4ccccc4s3)c(Cl)c2)C1 [Example 110, 3-[2-[1-[4-(2-Benzothiazolyl)amino-3-chlorophenyl]acetyl-(4S)-methoxy-(2S)-pyrrolidinyl]-5-thiazolyl]propionic acid]
pKi [1]: 8.60
Dispersibility in Japanese Pharmacopoeia First Solution [2]: 730 µg/mL
Dispersibility in Japanese Pharmacopoeia Second Solution [2]: 730 µg/mL

Compound: CCOC1CN([C@H]2C[C@@H](c3ncc(CCC(=O)O)s3)N(C(=O)Cc3cc(Cl)c(NC(=O)c4csc5ccccc45)cc3Cl)C2)C1 [Example 72, 3-[2-[1-[4-(3-Benzo[b]thiophenylcarbonylamino)-2,5-dichlorophenylacetyl]-(4S)-1-(3-ethoxy)azetidinyl-(2S)-pyrrolidinyl]-5-thiazolyl]propionic acid]
pKi [1]: 9.17
Dispersibility in Japanese Pharmacopoeia First Solution [2]: 960 µg/mL
Dispersibility in Japanese Pharmacopoeia Second Solution [2]: 960 µg/mL

Compound: O=C(O)CCc1cnc([C@@H]2C[C@H](N3CCN(CC(F)(F)F)CC3)CN2C(=O)Cc2cc(Cl)c(NC(=O)c3csc4ccccc34)cc2F)s1 [Example 81, 3-[2-[1-[4-(3-Benzo[b]thiophenylcarbonylamino)-5-chloro-2-fluorophenylacetyl]-(4S)-[1-(4-(2,2,2-trifluoro)ethyl)piperazinyl]-(2S)-pyrrolidinyl]-5-thiazolyl]propionic acid]
pKi [1]: 8.89
Dispersibility in Japanese Pharmacopoeia First Solution [2]: 210 µg/mL
Dispersibility in Japanese Pharmacopoeia Second Solution [2]: 680 µg/mL

pKi [1]: 8.80
Dispersibility in Japanese Pharmacopoeia First Solution [2]: 2000 µg/mL
Dispersibility in Japanese Pharmacopoeia Second Solution [2]: 200 µg/mL
Compound: O=C(O)CCc1cnc([C@@H]2C[C@H](Oc3cccnc3)CN2C(=O)Cc2cc(Cl)c(NC(=O)c3csc4ccccc34)cc2F)s1 [Example 45, 3-[2-[1-[4-[(3-Benzo[b]thienylcarbonyl)amino]-5-chloro-2-fluorophenylacetyl]-(4S)-(3-pyridyloxy)-(2S)-pyrrolidinyl]-5-thiazolyl]propionic acid]

pKi [1]: 9.03
Dispersibility in Japanese Pharmacopoeia First Solution [2]: >2000 µg/mL
Dispersibility in Japanese Pharmacopoeia Second Solution [2]: 510 µg/mL
Compound: O=C(O)CCc1cnc([C@@H]2C[C@H](N3CCCCC3)CN2C(=O)Cc2cc(Cl)c(NC(=O)c3csc4ccccc34)cc2F)s1 [Example 47, 3-[2-[1-[4-[(3-Benzo[b]thienylcarbonyl)amino]-5-chloro-2-fluorophenylacetyl]-(4S)-(1-piperidinyl)-(2S)-pyrrolidinyl]-5-thiazolyl]propionic acid]

Compound: O=C(O)CCc1cnc([C@@H]2C[C@H](N3CCC(F)(F)CC3)CN2C(=O)Cc2cc(Cl)c(NC(=O)c3coc4ccccc34)cc2F)s1 [Example 77, 3-[2-[1-[4-(3-Benzo[b]furanylcarbonylamino)-5-chloro-2-fluorophenylacetyl]-(4S)-[1-(4,4-difluoro)piperidinyl]-(2S)-pyrrolidinyl]-5-thiazolyl]propionic acid]
pKi [1]: 9.14
Dispersibility in Japanese Pharmacopoeia First Solution [2]: 430 µg/mL
Dispersibility in Japanese Pharmacopoeia Second Solution [2]: 380 µg/mL

Compound: C[C@@H]1CN([C@H]2C[C@@H](c3ncc(CCC(=O)O)s3)N(C(=O)Cc3cc(Cl)c(NC(=O)c4cn(C)c5ccccc45)cc3F)C2)C[C@H](C)O1 [Example 85, 3-[2-[1-[5-Chloro-2-fluoro-4-(1-methyl-3-indolylcarbonylamino)phenylacetyl]-(4S)-[4-(cis-2,6-dimethyl)morpholinyl]-(2S)-pyrrolidinyl]-5-thiazolyl]propionic acid]
pKi [1]: 9.00
Dispersibility in Japanese Pharmacopoeia First Solution [2]: 1200 µg/mL
Dispersibility in Japanese Pharmacopoeia Second Solution [2]: 1300 µg/mL

Compound: COC1CN([C@H]2C[C@@H](c3ncc(CCC(=O)O)s3)N(C(=O)Cc3cc(Cl)c(NC(=O)c4cn(C)c5ccccc45)cc3Cl)C2)C1 [Example 64, 3-[2-[1-[2,5-Dichloro-4-(1-methyl-3-indolylcarbonylamino)phenylacetyl]-(4S)-[1-(3-methoxy)-azetidinyl]-(2S)-pyrrolidinyl]-5-thiazolyl]propionic acid]
pKi [1]: 8.42
Dispersibility in Japanese Pharmacopoeia First Solution [2]: 1000 µg/mL
Dispersibility in Japanese Pharmacopoeia Second Solution [2]: 1000 µg/mL
